The target in experiment [1] is T1, human NK3 receptor (Homo sapiens, UniProt P29371).
T1 sequence (P29371 1-465): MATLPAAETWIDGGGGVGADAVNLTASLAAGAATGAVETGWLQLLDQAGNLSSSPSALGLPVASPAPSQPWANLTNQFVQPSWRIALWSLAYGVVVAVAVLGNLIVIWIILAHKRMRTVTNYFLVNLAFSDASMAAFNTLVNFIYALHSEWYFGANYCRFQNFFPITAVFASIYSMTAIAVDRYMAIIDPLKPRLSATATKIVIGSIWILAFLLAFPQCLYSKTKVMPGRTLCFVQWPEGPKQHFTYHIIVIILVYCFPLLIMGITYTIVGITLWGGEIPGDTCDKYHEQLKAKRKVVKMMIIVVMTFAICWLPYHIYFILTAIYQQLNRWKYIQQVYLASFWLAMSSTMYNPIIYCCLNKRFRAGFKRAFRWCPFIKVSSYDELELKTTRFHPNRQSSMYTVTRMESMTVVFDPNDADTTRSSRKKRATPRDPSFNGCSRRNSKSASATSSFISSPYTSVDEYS
Kind of experiment: Binding potency of the test substances to NK3-receptors in vitro ([3H]-SR 142801 displacement). The settings on record: human NK3-receptor in CHO cell membranes, [3H]-SR 142801 (osanetant); average of at least three measurements; read-out: pKi, binding potency to NK3-receptors (converted). Details: expressed in transfected cells; host or cells: CHO cells (membrane preparation). From the text:
3. Determination of the Binding Potency of the Test Substances to NK3-Receptors in Vitro
The affinity of test compounds for NK3-receptors can be determined by measuring the ability of the test compound to displace a radiolabeled ligand from its specific binding site.
(§1) The radiolabel used in this assay is [^3H]-SR 142801 (osanetant). Receptors were obtained from membrane preparations of CHO-cells (Chinese Hamster Ovary cells), in which the human NK3-receptor was stably expressed. Membranes were incubated with [^3H]-osanetant in the absence or presence of test compounds at different concentrations, diluted in a buffer system. Separation of bound radioactivity from free radioactivity was done by filtration through glass fiber filters (Packard GF/B) with several washings with ice-cold buffer solution. Bound radioactivity was measured with a liquid scintillation counter (total binding). Unspecific binding was determined by incubation with an excess (1 μmol/l) of unlabeled osanetant. Specific binding is obtained by subtracting the unspecific binding from the total binding.
Radioactivity of the specific binding was plotted against the concentration of the test compound and IC50 values, i.e. the concentration of test compound by which 50% of the radioligand is displaced, were calculated. The inhibition constant (Ki) was calculated according to the Cheng-Prusoff equation, and listed as its negative logarithmic value (pKi) The pKi value describes the potency of a test compound to bind to a receptor.
(§2) The average result of all measurements is listed above.

Experiment [2] has as its target T1, human NK3 receptor. Kind of experiment: Functional cellular test, Ca2+ measurements using aequorin for NK3 activity. The class given is cell-based. Details: expressed in transfected cells; host or cells: cell line co-expressing mitochondrially targeted apoaequorin (CHO according to b76/b77). Particulars: read-out: pA2 data for NK3 (converted).
Experiment [3] addresses T2, human NK2-receptor (Homo sapiens, UniProt P21452).
T2 sequence (P21452 1-398): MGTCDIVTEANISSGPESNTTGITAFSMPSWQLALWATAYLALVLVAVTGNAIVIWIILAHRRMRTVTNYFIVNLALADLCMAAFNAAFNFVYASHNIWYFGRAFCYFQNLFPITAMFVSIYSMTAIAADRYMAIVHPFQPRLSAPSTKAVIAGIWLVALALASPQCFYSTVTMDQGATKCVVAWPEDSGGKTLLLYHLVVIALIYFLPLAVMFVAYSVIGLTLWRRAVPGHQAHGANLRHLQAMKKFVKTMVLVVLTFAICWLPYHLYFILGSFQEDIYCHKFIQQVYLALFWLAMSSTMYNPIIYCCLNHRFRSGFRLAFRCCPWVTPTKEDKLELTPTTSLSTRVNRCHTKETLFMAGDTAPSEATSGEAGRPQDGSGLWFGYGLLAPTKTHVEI
As to the kind of experiment: Functional cellular test, Ca2+ measurements using FLIPR for NK2 activity.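 Further: CHO cells stably expressing the human receptor, loaded with a calcium dye, antagonist inhibition of ligand-evoked intracellular calcium rise read as peak fluorescence change on FLIPR.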
Method: Functional Cellular Tests of the NK1-, NK2- and NK3-Antagonism
Functional cellular tests of the antagonistic effect of the compounds of the present invention on the human tachykinin receptors were performed in CHO cells expressing the recombinant human NK1, NK2 or NK3-receptor. In these tests the inhibition of ligand-induced increase in mobilization of intracellular calcium and inhibition of ligand-induced phosphorylation of mitogen activated protein kinase (MAPK) were determined, which can be used as a measure of functional activity of tachykinin-antagonists. Additionally, the antagonistic properties of reference compounds on the different tachykinin receptors were characterized for comparison.
The effects of test compounds were assessed using Chinese hamster ovary (CHO) fibroblast cells, stably expressing cloned human NK1, NK2 or NK3-receptors. The NK receptor is coupled to Gq. The activation of the Gq protein by ligand binding to the receptor leads to a mobilization of intracellular calcium and phosphorylation of MAPK. Both systems were used to determine functional effects of the test compounds.
Ca^2+ Measurements Using FLIPR for NK1 and NK2 Activity
For tests, cells were seeded 24 hours prior to the experiment into black 96-well microplates. The cell density was 2.2×10^4 cells/well. All steps were done under sterile conditions. In order to observe changes in intracellular calcium levels, cells were loaded with a calcium-sensitive dye. This dye (FLUO-4, from Molecular Probes) excites at 488 nm, and emits in the 500 nm to 560 nm range, only if a complex with calcium is formed. For the dye loading the growth-medium was aspirated out of the well without disturbing the confluent cell layer and 100 μl loading medium (HBSS, 4 μM FLUO-4, 0.005% (w/v) pluronic acid, 2.5 mM probenecid, 20 mM HEPES, pH 7.4) was dispensed into each well using an automatic pipettor system (Multidrop, Labsystems). Pluronic acid was added to increase dye solubility and dye uptake into the cells, whereas probenecid, an anion exchange inhibitor, was added to the loading medium to increase dye retention in the cells. The cells were incubated in a 5% CO2 incubator at 37° C. for 40 minutes. After dye loading, the cells were washed three times with wash-buffer (HBSS, 2.5 mM probenecid, 20 mM HEPES, pH 7.4) to reduce basal fluorescence. In the last washing step the buffer was aspirated and replaced with 100 μl washing buffer. […] The FLIPR setup parameters were set to 0.4 sec exposure length, filter 1, 50 μl fluid addition, pipettor height at 125 μl, dispense speed 40 μl/sec without mixing. Maximal fluorescence changes were obtained using the statistic function of the FLIPR software, and data plotted using GraphPad Prism 4. All points were expressed as a percentage inhibition of the control agonist. IC50 values were determined using sigmoidal dose-response curve fitting. Antagonist potencies (pA2) values were calculated using equation: pA2=−log(IC50/(1+[L]/EC50)),

The target in experiment [4] is T2, human NK2-receptor. Kind of experiment: Binding potency of the test substances to NK2-receptors in vitro ([3H]-SR 48968 displacement). Details: expressed in transfected cells; host or cells: CHO cells (membrane preparation). The settings on record: human NK2-receptor in CHO cell membranes, [3H]-SR 48968 (saredutant); average of at least three measurements; read-out: pKi, binding potency to NK2-receptors (converted).
Excerpt: 2. Determination of the Binding Potency of the Test Substances to NK2-Receptors in Vitro
The affinity of test compounds for NK2-receptors can be determined by measuring the ability of the test compound to displace a radiolabeled ligand from its specific binding site.
as §1, with “48968 (saredutant).” for “142801 (osanetant).”, “NK2-receptor” for “NK3-receptor”, “[^3H]-saredutant” for “[^3H]-osanetant”, “(0.1” for “(1”, “saredutant.” for “osanetant.”
Radioactivity of the specific binding was plotted against the concentration of the test compound and IC50 values, i.e. the concentration of test compound by which 50% of the radioligand is displaced, were calculated. The inhibition constant (Ki) was calculated according to the Cheng-Prusoff equation, and listed as its negative logarithmic value (pKi). The pKi value describes the potency of a test compound to bind to a receptor.
as §2

As for `CC(=O)Oc1ccc(C(=O)N(C)C[C@@H](CCN2CCC(C(=O)N(C)C)(N3CCCCC3)CC2)c2ccc(Cl)c(Cl)c2)cc1` [compound 5, 4-({[(2S)-2-(3,4-dichlorophenyl)-4-{4′-[(dimethylamino)-carbonyl]-1,4′-bipiperidin-1′-yl}butyl](methyl)amino}carbonyl)phenyl acetate], the Ki at human NK3 receptor [1] is 5.01 nM; on human NK2-receptor [4] it was 1 nM. The Kb on human NK3 receptor [2] and on human NK2-receptor [3] was 3.16 nM each time.
As to `CN(C)C(=O)C1(N2CCCCC2)CCN(CCC(CN(C)C(=O)c2cc[n+]([O-])cc2)c2ccc(Cl)c(Cl)c2)CC1` (stereo not drawn) [compound 17], the Kb is 126 nM on human NK3 receptor [2] and 15.8 nM at human NK2-receptor [3]. Further, at human NK2-receptor [4], the Ki is 31.6 nM.
As for `CC(=O)N1CCC(C(=O)N(C)CC(CCN2CCC(C(=O)N(C)C)(N3CCCCC3)CC2)c2ccc(Cl)c(Cl)c2)CC1` (stereo not drawn) [compound 52], the Ki was 12.6 nM on human NK3 receptor [1] and 15.8 nM at human NK2-receptor [4]. Besides, the Kb at human NK2-receptor [3] was 3.98 nM.
In the case of `CN(C)C(=O)C1(N2CCCCC2)CCN(CCC(CN(C)C(=O)C2CCOCC2)c2ccc(Cl)c(Cl)c2)CC1` (stereo not drawn) [compound 53], the Ki at human NK3 receptor [1] was 3.16 nM. For the same molecule, the Kb on human NK3 receptor [2] is 50.1 nM.
For `CN(C)C(=O)C1(N2CCCCC2)CCN(CCC(CN(C)C(=O)c2ccc3c(c2)OC(F)(F)O3)c2ccc(Cl)c(Cl)c2)CC1` (stereo not drawn) [compound 63], the values for the Ki at human NK3 receptor [1] and at human NK2-receptor [4] were 20 nM and 3.98 nM, respectively.
In the case of `CN(C)C(=O)C1(N2CCCCC2)CCN(CCC(CN(C)C(=O)c2cc[nH]c2)c2ccc(Cl)c(Cl)c2)CC1` (stereo not drawn) [compound 64], the Ki was 79.4 nM on human NK3 receptor [1] and 12.6 nM at human NK2-receptor [4].
Regarding `CN(C)C(=O)C1(N2CCCCC2)CCN(CCC(CN(C)C(=O)c2ccc3occc3c2)c2ccc(Cl)c(Cl)c2)CC1` (stereo not drawn) [compound 68], the Ki is 10 nM on human NK3 receptor [1] and 2 nM on human NK2-receptor [4]. Moreover, at human NK2-receptor [3], the Kb is 10 nM.
As for `CN(C)C(=O)C1(N2CCCCC2)CCN(CCC(CN(C)C(=O)c2ccccc2Br)c2ccc(Cl)c(Cl)c2)CC1` (stereo not drawn) [compound 71], the Ki at human NK3 receptor [1] was 39.8 nM; at human NK2-receptor [4] it was 5.01 nM.
The matching figures for `CN(C)C(=O)C1(N2CCCCC2)CCN(CCC(CN(C)C(=O)c2ccccc2F)c2ccc(Cl)c(Cl)c2)CC1` (stereo not drawn) [compound 72]: 39.8 nM and 3.16 nM.
For the molecule `CN(C)C(=O)C1(N2CCCCC2)CCN(CCC(CN(C)C(=O)c2c(F)c(F)c(F)c(F)c2F)c2ccc(Cl)c(Cl)c2)CC1` (stereo not drawn) [compound 73], the Ki on human NK3 receptor [1] is 39.8 nM; at human NK2-receptor [4] it was 12.6 nM.
On to `CN(C)C(=O)C1(N2CCCCC2)CCN(CCC(CN(C)C(=O)c2c(F)cccc2F)c2ccc(Cl)c(Cl)c2)CC1` (stereo not drawn) [compound 74], for which the results for the Ki at human NK3 receptor [1] and on human NK2-receptor [4] were 25.1 nM and 3.98 nM, respectively.
Consider `CN(C)C(=O)C1(N2CCCCC2)CCN(CCC(CN(C)C(=O)c2ccc(Cl)cc2Cl)c2ccc(Cl)c(Cl)c2)CC1` (stereo not drawn) [compound 75], for which the Ki is 39.8 nM on human NK3 receptor [1] and 5.01 nM on human NK2-receptor [4].
In the same order, the values of `CN(C)C(=O)C1(N2CCCCC2)CCN(CCC(CN(C)C(=O)c2c(Cl)cccc2Cl)c2ccc(Cl)c(Cl)c2)CC1` (stereo not drawn) [compound 76] are 50.1 nM and 15.8 nM.
`CN(C)C(=O)C1(N2CCCCC2)CCN(CCC(CN(C)C(=O)c2ccccc2C(F)(F)F)c2ccc(Cl)c(Cl)c2)CC1` (stereo not drawn) [compound 77]: the Ki was 79.4 nM on human NK3 receptor [1] and 3.16 nM at human NK2-receptor [4].
Regarding `Cc1ccccc1C(=O)N(C)CC(CCN1CCC(C(=O)N(C)C)(N2CCCCC2)CC1)c1ccc(Cl)c(Cl)c1` (stereo not drawn) [compound 78], the values for the Ki at human NK3 receptor [1] and at human NK2-receptor [4] were 25.1 nM and 1.58 nM, respectively.
`CN(C)C(=O)C1(N2CCCCC2)CCN(CCC(CN(C)C(=O)c2cccc(F)c2)c2ccc(Cl)c(Cl)c2)CC1` (stereo not drawn) [compound 79]: the Ki on human NK3 receptor [1] is 20 nM; at human NK2-receptor [4] it was 2 nM.
For `CN(C)C(=O)C1(N2CCCCC2)CCN(CCC(CN(C)C(=O)c2ccc(Cl)c(Cl)c2)c2ccc(Cl)c(Cl)c2)CC1` (stereo not drawn) [compound 81], the figures for the Ki at human NK3 receptor [1] and on human NK2-receptor [4] were 79.4 nM and 12.6 nM, respectively.
Regarding `CN(C)C(=O)C1(N2CCCCC2)CCN(CCC(CN(C)C(=O)c2ccc(Cl)cc2)c2ccc(Cl)c(Cl)c2)CC1` (stereo not drawn) [compound 84], the Ki at human NK3 receptor [1] is 39.8 nM; at human NK2-receptor [4], 12.6 nM.
`COc1ccc(C(=O)N(C)CC(CCN2CCC(C(=O)N(C)C)(N3CCCCC3)CC2)c2ccc(Cl)c(Cl)c2)cc1` (stereo not drawn) [compound 85]: the Ki at human NK3 receptor [1] was 50.1 nM; at human NK2-receptor [4], 12.6 nM.
The matching figures for `CN(C)C(=O)C1(N2CCCCC2)CCN(CCC(CN(C)C(=O)c2ccc(C(F)(F)F)cc2)c2ccc(Cl)c(Cl)c2)CC1` (stereo not drawn) [compound 86]: 63.1 nM and 12.6 nM.
As to `Cc1ccc(C(=O)N(C)CC(CCN2CCC(C(=O)N(C)C)(N3CCCCC3)CC2)c2ccc(Cl)c(Cl)c2)cc1` (stereo not drawn) [compound 87], the Ki at human NK3 receptor [1] was 39.8 nM; at human NK2-receptor [4] it was 7.94 nM.
Consider `CN(C)C(=O)C1(N2CCCCC2)CCN(CCC(CN(C)C(=O)Cc2ccccc2)c2ccc(Cl)c(Cl)c2)CC1` (stereo not drawn) [compound 89], for which the Ki on human NK3 receptor [1] was 15.8 nM; at human NK2-receptor [4], 12.6 nM.
In the same order, the values of `CN(C)C(=O)C1(N2CCCCC2)CCN(CCC(CN(C)C(=O)C2CC2c2ccccc2)c2ccc(Cl)c(Cl)c2)CC1` (stereo not drawn) [compound 90] are 79.4 nM and 12.6 nM.
Consider `CN(C)C(=O)C1(N2CCCCC2)CCN(CCC(CN(C)C(=O)c2ccc(C#N)cc2)c2ccc(Cl)c(Cl)c2)CC1` (stereo not drawn) [compound 91], for which the Ki at human NK3 receptor [1] was 15.8 nM; at human NK2-receptor [4], 7.94 nM.
On to `CN(C)C(=O)C1(N2CCCCC2)CCN(CC[C@H](CN(C)C(=O)c2ccccc2)c2ccccc2)CC1` [compound 94, 1′-[(3S)-4-[benzoyl(methyl)amino]-3-phenylbutyl]-N,N-dimethyl-1, 4′-bipiperidine-4′-carboxamide], for which, at human NK2-receptor [3], the Kb is 1.58 nM. Moreover, the Ki on human NK2-receptor [4] was 3.16 nM.
Regarding `CN(C[C@@H](CCN1CCC(C(=O)N2CCCC2)(N2CCCCC2)CC1)c1ccc(Cl)c(Cl)c1)C(=O)c1ccccc1` [compound 124, N-{(2S)-2-(3,4-dichlorophenyl)-4-[4′-(pyrrolidin-1-ylcarbonyl)-1,4′-bipiperidin-1′-yl]butyl}-N-methylbenzamide], the Ki at human NK3 receptor [1] was 15.8 nM; on human NK2-receptor [4], 1 nM.

Values taken from patent publication US20070219214A1, “Dual NK2/NK3-antagonists, pharmaceutical compositions comprising them, and processes for their preparation” (Solvay pharmaceuticals GmbH, priority 2006, published 2007).
